Legend:
Format in all cases: biochemical
[1] = target: p110β/p85α (Homo sapiens, UniProt P42338); test: Transcreener KINASE Assay, kinase inhibition of p110β/p85α; conditions: for PI3Kβ IH % @ 1 uM: 1 uM test compound; for IC50: read-out: PI3Kβ IC50
Method in brief: (§1)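 ADP formation read by far-red competitive FP immunoassay (60 min RT detection step) after an 80 min RT kinase reaction; substrate added as a 30 uM PIP2/10 uM ATP solution (not final).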

[2] = target: p110δ/p85α (Homo sapiens, UniProt O00329); test: Transcreener KINASE Assay, kinase inhibition of p110δ/p85α; conditions: for PI3Kδ IH % @ 1 uM: 1 uM test compound; for IC50: read-out: PI3Kδ IC50
p110δ/p85α, sequence (O00329 whole entry): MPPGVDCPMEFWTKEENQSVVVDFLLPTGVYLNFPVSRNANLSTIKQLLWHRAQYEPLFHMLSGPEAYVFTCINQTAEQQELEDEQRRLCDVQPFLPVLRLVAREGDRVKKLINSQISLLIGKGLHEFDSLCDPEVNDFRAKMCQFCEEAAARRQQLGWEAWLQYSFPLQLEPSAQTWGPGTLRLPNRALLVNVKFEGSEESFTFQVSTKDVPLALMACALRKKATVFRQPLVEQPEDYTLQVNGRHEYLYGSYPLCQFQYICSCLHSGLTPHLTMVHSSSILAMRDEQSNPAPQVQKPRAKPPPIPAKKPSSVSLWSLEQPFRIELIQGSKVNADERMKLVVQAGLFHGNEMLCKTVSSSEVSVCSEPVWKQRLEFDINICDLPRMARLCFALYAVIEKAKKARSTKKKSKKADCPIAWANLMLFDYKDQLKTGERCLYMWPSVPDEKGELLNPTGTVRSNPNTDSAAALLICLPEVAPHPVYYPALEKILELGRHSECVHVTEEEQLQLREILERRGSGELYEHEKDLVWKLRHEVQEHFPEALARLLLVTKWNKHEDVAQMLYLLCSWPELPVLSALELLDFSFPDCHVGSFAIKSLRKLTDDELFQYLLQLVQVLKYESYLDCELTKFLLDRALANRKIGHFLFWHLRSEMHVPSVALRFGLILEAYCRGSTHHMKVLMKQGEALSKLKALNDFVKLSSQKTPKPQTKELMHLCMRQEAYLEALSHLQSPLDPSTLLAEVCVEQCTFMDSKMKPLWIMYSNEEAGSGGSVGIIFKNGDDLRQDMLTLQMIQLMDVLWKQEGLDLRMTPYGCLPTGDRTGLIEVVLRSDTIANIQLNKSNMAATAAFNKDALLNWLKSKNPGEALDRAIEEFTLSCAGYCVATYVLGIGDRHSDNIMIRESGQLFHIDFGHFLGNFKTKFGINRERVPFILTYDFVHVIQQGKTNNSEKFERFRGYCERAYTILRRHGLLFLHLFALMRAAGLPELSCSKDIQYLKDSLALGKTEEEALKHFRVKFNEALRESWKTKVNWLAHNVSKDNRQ
p110δ/p85α, sequence (P27986 whole entry partner): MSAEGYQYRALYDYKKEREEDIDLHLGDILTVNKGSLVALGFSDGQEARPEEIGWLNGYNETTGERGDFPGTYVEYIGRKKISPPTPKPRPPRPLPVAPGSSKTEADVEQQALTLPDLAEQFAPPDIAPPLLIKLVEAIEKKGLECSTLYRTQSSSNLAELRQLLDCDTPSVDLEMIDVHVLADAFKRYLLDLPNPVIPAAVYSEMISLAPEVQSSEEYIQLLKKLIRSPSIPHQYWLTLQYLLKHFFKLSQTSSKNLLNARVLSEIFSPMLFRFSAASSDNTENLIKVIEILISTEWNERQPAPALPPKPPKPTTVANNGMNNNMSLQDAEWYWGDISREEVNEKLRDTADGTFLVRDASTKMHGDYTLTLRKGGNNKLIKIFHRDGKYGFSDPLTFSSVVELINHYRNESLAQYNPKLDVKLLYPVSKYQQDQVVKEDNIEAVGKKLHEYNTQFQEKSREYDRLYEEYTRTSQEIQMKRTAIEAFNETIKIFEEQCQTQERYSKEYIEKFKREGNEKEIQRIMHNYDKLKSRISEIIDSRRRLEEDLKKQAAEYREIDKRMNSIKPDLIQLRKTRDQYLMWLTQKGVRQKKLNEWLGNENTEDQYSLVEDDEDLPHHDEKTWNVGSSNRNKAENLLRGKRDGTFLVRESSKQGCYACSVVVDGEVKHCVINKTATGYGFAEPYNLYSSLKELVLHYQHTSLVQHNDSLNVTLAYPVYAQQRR
Method in brief: as §1

[3] = target: p110γ (Homo sapiens, UniProt P48736); test: Transcreener KINASE Assay, kinase inhibition of p110γ; conditions: for PI3Kγ IH % @ 1 uM: 1 uM test compound; for IC50: read-out: PI3Kγ IC50
p110γ, sequence (P48736 whole entry, canonical isoform): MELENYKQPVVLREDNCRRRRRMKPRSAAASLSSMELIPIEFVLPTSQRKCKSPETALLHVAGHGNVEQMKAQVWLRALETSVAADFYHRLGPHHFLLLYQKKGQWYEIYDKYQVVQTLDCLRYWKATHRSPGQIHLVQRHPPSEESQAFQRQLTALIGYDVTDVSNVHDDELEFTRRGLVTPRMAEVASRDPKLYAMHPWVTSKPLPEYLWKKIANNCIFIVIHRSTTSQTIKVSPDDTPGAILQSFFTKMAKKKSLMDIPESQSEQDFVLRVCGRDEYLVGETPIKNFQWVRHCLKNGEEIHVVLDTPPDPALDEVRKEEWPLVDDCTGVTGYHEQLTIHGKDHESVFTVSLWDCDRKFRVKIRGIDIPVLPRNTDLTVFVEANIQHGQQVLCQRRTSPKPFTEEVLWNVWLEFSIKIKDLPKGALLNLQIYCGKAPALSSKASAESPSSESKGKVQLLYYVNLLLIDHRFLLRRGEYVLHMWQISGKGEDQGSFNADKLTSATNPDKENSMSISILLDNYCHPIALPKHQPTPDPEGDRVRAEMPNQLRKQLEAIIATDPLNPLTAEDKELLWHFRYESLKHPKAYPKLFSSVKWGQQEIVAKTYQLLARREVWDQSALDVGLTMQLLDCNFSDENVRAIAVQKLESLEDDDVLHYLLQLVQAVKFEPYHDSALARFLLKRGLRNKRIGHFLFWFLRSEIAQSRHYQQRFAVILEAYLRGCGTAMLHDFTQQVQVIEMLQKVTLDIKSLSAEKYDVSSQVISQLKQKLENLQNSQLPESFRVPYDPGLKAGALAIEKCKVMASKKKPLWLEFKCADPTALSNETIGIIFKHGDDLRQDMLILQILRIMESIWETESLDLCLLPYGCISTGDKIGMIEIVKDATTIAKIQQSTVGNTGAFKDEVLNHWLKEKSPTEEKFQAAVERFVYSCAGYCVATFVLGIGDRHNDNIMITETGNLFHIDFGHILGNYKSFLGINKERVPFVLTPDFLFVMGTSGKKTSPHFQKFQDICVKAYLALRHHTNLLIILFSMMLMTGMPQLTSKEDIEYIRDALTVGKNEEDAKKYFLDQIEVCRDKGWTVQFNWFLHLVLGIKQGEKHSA
Method in brief: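 Recombinant PI3K isoforms (p85α complexes or p110γ alone) reacted 80 min at room temperature, then ADP detection mix added for 60 min. ADP formation read by far-red competitive fluorescence polarization immunoassay; IC50 by curve fitting.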

p110β/p85α, sequence (P42338 whole entry): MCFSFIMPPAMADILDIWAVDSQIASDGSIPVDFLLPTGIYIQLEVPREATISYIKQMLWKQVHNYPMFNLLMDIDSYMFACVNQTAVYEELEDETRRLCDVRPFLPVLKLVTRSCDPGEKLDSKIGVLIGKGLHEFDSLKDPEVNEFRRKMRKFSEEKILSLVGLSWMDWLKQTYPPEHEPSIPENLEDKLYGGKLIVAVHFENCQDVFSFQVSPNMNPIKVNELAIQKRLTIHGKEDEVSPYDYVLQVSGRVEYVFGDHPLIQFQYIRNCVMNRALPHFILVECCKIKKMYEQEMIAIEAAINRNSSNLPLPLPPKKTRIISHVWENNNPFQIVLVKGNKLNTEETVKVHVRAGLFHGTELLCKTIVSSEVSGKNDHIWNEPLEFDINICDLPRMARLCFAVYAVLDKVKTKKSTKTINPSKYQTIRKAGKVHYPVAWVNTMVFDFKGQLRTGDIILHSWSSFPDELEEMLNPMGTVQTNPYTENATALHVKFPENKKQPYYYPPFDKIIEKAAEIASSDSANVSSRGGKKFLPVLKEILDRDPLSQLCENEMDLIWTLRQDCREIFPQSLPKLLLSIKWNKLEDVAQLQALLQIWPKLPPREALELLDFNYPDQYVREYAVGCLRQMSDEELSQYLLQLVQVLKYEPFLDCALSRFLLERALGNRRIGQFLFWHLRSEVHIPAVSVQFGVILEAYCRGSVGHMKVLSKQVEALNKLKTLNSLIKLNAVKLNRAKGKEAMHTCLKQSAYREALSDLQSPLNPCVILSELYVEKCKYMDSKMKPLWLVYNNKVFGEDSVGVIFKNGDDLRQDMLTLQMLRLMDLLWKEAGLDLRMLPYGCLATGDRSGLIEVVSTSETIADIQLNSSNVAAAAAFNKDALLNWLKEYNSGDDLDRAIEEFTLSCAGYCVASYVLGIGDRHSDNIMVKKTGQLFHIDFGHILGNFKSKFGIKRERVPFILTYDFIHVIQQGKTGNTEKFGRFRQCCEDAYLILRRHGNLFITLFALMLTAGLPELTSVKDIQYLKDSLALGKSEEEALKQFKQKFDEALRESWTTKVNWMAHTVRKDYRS
p110β/p85α, sequence (P27986 2-724 partner): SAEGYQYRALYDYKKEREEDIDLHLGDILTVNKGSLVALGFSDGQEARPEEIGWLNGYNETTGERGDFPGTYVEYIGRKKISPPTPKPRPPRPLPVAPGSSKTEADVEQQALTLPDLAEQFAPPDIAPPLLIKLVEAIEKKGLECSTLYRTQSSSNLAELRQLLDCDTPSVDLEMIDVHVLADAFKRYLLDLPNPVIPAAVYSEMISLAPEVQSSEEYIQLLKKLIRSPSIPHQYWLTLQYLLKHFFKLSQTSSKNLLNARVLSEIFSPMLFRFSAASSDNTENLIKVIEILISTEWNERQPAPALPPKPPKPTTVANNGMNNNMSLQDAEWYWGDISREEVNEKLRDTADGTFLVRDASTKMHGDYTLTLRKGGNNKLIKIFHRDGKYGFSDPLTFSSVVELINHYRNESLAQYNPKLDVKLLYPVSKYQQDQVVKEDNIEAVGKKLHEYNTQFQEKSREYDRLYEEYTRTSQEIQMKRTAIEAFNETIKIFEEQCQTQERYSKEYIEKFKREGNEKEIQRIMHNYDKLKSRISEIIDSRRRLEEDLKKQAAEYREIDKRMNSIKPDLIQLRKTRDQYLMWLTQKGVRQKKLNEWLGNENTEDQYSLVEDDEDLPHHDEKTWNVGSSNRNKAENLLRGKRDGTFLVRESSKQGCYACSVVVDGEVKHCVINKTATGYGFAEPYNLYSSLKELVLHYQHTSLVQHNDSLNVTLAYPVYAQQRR

Row | Compound | PI3Kβ IH % @ 1 uM [1] | PI3Kδ IH % @ 1 uM [2] | PI3Kγ IH % @ 1 uM [3] | IC50 [1] | IC50 [2] | IC50 [3]
1 | O=c1c2c(Cl)ccn2nc([C@@H]2CC(F)(F)CN2c2ncnc3[nH]cnc23)n1Cc1ncccn1 [Compound 161] | 15.3% | 45.7% | −8.4% | – | – | –
2 | N#Cc1c[nH]c2ncnc(N3CCC[C@H]3c3nn4ccc(Cl)c4c(=O)n3C3CCC3)c12 [Compound 162] | 83.2% | >100% | 97.7% | 137 nM | 1 nM | 6 nM
3 | NC(=O)c1c[nH]c2ncnc(N3CC[C@H]3c3nn4ccc(Cl)c4c(=O)n3-c3ccccc3)c12 [Compound 163] | −3.2% | 31.3% | 0.6% | – | – | –
4 | O=C(c1c[nH]c2ncnc(N3CCC[C@H]3c3nn4ccc(Cl)c4c(=O)n3-c3ccccc3)c12)N1CCOCC1 [Compound 164] | 22.9% | 62.3% | 64.9% | – | – | –
5 | O=c1c2c(Cl)ccn2nc([C@@H]2CCN2c2ncnc3[nH]cc(C#CCO)c23)n1-c1ccccc1 [Compound 165] | 71.3% | >100% | >100% | 400 nM | 1 nM | 2 nM
6 | Nc1ncc(-c2n[nH]c3ncnc(N4CCC[C@H]4c4nn5ccc(Cl)c5c(=O)n4-c4ccccc4)c23)cn1 [Compound 166] | >100% | 97.2% | >100% | 17 nM | 1 nM | 2 nM
7 | Nc1ccc(-c2n[nH]c3ncnc(N4CCC[C@H]4c4nn5ccc(Cl)c5c(=O)n4-c4ccccc4)c23)cn1 [Compound 167] | 42.3% | >100% | >100% | – | 5 nM | 21 nM
8 | COc1ncc(-c2n[nH]c3ncnc(N4CCC[C@H]4c4nn5ccc(Cl)c5c(=O)n4-c4ccccc4)c23)cn1 [Compound 168] | 98.8% | >100% | 95.1% | – | – | –
9 | Nc1ccc(-c2n[nH]c3ncnc(N4CC[C@H]4c4nn5ccc(Cl)c5c(=O)n4-c4ccccc4)c23)cn1 [Compound 169] | −21.1% | 88.0% | 31.2% | – | 4 nM | –
10 | COc1ccc(-c2n[nH]c3ncnc(N4CC[C@H]4c4nn5ccc(Cl)c5c(=O)n4-c4ccccc4)c23)cn1 [Compound 170] | 4.6% | 96.1% | 66.5% | – | 5 nM | –
11 | Nc1ncc(-c2n[nH]c3ncnc(N4CC[C@H]4c4nn5ccc(Cl)c5c(=O)n4-c4ccccc4)c23)cn1 [Compound 171] | 25.2% | 96.6% | 75.3% | – | 5 nM | 130 nM
12 | COc1ncc(-c2n[nH]c3ncnc(N4CC[C@H]4c4nn5ccc(Cl)c5c(=O)n4-c4ccccc4)c23)cn1 [Compound 172] | 38.2% | 99.6% | 79.8% | – | 2 nM | 297 nM
13 | N#Cc1ccc(-c2n[nH]c3ncnc(N4CC[C@H]4c4nn5ccc(Cl)c5c(=O)n4-c4ccccc4)c23)cn1 [Compound 173] | 25.7% | 96.3% | 48.7% | – | 4 nM | –
14 | CC(Nc1ncnc2[nH]cc(-c3ccc(N)nc3)c12)c1cc2ncc(Cl)n2c(=O)n1-c1ccccc1 (stereo not shown) [Compound 174] | 97.7% | >100% | 94.0% | 23 nM | 1 nM | 31 nM
15 | COc1ncc(-c2c[nH]c3ncnc(NC(C)c4cc5ncc(Cl)n5c(=O)n4-c4ccccc4)c23)cn1 (stereo not shown) [Compound 175] | 90.9% | 99.5% | 87.6% | 78 nM | 1 nM | 105 nM
16 | Nc1ccc(-c2c[nH]c3ncnc(N4CCOC[C@H]4c4nn5ccc(Cl)c5c(=O)n4-c4ccccc4)c23)cn1 [Compound 176] | 16.8% | 97.1% | 58.3% | – | 5 nM | –
17 | O=c1c2c(CO)ccn2nc([C@@H]2CCCN2c2ncnc3[nH]cnc23)n1-c1ccccc1 [Compound 177, (S)-2-(1-(9H-purin-6-yl)pyrrolidin-2-yl)-5-(hydroxymethyl)-3-phenylpyrrolo[2,1-f][1,2,4]triazin-4(3H)-one] | 17.0% | 97.1% | 79.8% | – | 30 nM | 89 nM
18 | Nc1ncc(C(F)(F)F)c(N2CCC[C@H]2c2nn3ccc(CO)c3c(=O)n2-c2ccccc2)n1 [Compound 178] | 1.5% | 82.3% | 7.6% | – | 211 nM | –
19 | N#Cc1c[nH]c2ncnc(N3CCC[C@H]3c3nn4ccc(CO)c4c(=O)n3-c3ccccc3)c12 [Compound 179] | 51.5% | >100% | 97.9% | – | 2 nM | 15 nM
20 | Nc1ncc(-c2c[nH]c3ncnc(N4CC[C@H]4c4nn5ccc(F)c5c(=O)n4-c4ccccc4)c23)cn1 [Compound 180, (S)-2-(1-(5-(2-aminopyrimidin-5-yl)-7H-pyrrolo[2,3-d]pyrimidin-4-yl)azetidin-2-yl)-5-fluoro-3-phenylpyrrolo[2,1-f][1,2,4]triazin-4(3H)-one] | 92.8% | >100% | 98.7% | 41 nM | < 0.46 nM | 2 nM
21 | COc1ncc(-c2c[nH]c3ncnc(N4CC[C@H]4c4nn5ccc(F)c5c(=O)n4-c4ccccc4)c23)cn1 [Compound 181] | 95.9% | >100% | >100% | 23 nM | – | 4 nM
22 | COc1ccc(-c2c[nH]c3ncnc(N4CC[C@H]4c4nn5ccc(F)c5c(=O)n4-c4ccccc4)c23)cn1 [Compound 182] | 93.3% | >100% | 94.9% | 62 nM | – | 7 nM
23 | Nc1ccc(-c2c[nH]c3ncnc(N4CC[C@H]4c4nn5ccc(F)c5c(=O)n4-c4ccccc4)c23)cn1 [Compound 183] | 77.2% | >100% | >100% | 331 nM | – | 5 nM
24 | N#Cc1ncc(-c2c[nH]c3ncnc(N4CC[C@H]4c4nn5ccc(F)c5c(=O)n4-c4ccccc4)c23)cn1 [Compound 184] | >100% | >100% | 98.4% | 38 nM | 0.5 nM | 8 nM
25 | CC(=O)c1c[nH]c2ncnc(N3CC[C@H]3c3nn4ccc(Cl)c4c(=O)n3-c3ccccc3)c12 [Compound 185, (S)-2-(1-(5-acetyl-7H-pyrrolo[2,3-d]pyrimidin-4-yl)azetidin-2-yl)-5-chloro-3-phenylpyrrolo[2,1-f][1,2,4]triazin-4(3H)-one] | 45.9% | >100% | 99.0% | – | 6 nM | –
26 | O=c1c2c(F)ccn2nc([C@@H]2CCCN2c2ncnc3[nH]cnc23)n1-c1ccccc1 [Compound 190] | 52.9% | 92.0% | 84.1% | – | 3 nM | –
27 | O=c1c2c(F)ccn2nc([C@@H]2CCCN2c2ncnc3[nH]cnc23)n1-c1cccc(F)c1 [Compound 191] | 56.8% | >100% | >100% | – | 3 nM | 32 nM
